In patent US20080287375A1, “Selective Glycosidase Inhibitors, Methods of Making Inhibitors, and Uses Thereof” (SIMON FRASER UNIVERSITY, priority 2005, published 2008):
Entries after “also recorded” stand apart in the source; their conditions may differ.

What was measured:
[1] = test system: O-GlcNAc-modified proteins in COS-7 cells; assay: Western blot of O-GlcNAc-modified proteins in COS-7 cells cultured with inhibitors; assay type: cell-based; conditions: 50 μM inhibitor
Method: COS-7 cells were cultured in DMEM medium (Invitrogen) supplemented with 5-10% FBS (Invitrogen). Aliquots of inhibitors (50 μL of a stock in 95% ethanol) were delivered onto tissue culture plates and the ethanol was evaporated. The cells were incubated at 37° C. for 40 hours at which time they reached approximately 80% confluence. […] COS-7 cells were cultured to 25% confluence in 5% FBS and an aliquot (100 μL) of inhibitor dissolved in media and filter sterilized was added to each plate to yield a final concentration of 50 μM of inhibitor. COS-7 cells (2×10 cm plates) were harvested at the appropriate times by scraping and were pooled by centrifugation (200×g, 10 min). Cells were washed once with PBS, pH 7.0 (10 mL) and pelleted (200×g, 10 min). The cells could be frozen at −80° C. at this point. Control cultures without inhibitors were treated in the same manner.
A culture of control cells was treated in the same manner as follows but the cultures contained no inhibitor. Cells were harvested as described above. Frozen cells were thawed at 4° C., and cold lysis buffer (1 mL of 50 mM Tris, pH 8.0 containing 150 mM NaCl, 1 mM EDTA, 1 mM PMSF, 1% NP-40, 0.5% sodium deoxycholate, and 1 mM of inhibitor 90) was added. After 10 minutes at 4° C. the solution was centrifuged at 14,000 rpm in an Eppendorf 5415C microcentrifuge and the supernatant was collected. SDS/PAGE loading buffer was added to an aliquot (15 μL) of each sample, and after heating at 96° C. aliquots were loaded onto 10% or 12% Tris-HCl polyacrylamide gels. After electrophoresis, the samples were electroblotted to nitrocellulose membrane (0.45 μm, Bio-Rad). Transfer was verified by visual inspection of the transfer of prestained markers (Dual Colour Precision Plus Protein Standard—Biorad). The membrane was blocked by using 5% BSA (fraction V, Sigma) in PBS (blocking buffer A for samples probed with mouse anti-O-GlcNAc monoclonal IgM antibody (MAb CTD 110.6—Covance)) or 5% low-fat dry powdered milk (blocking buffer B for samples probed with anti-β-actin), pH 7.4, containing 0.1% Tween 20 for 1 h at room temperature or overnight at 4° C. The blocking solution was decanted, and a solution of blocking buffer A containing MAb CTD 110.6 (1:2500 of the stock) or blocking buffer B containing mouse monoclonal anti-β-actin IgG (Clone AC-40—Sigma) was added (1:1000 dilution) as appropriate. The membrane was incubated at room temperature for 1 h or overnight at 4° C. after which the blocking buffer was decanted and the membrane was rinsed with PBS, pH 7.4, containing 0.1% Tween 20 (wash buffer). Membranes were then rinsed for 2×5 min and 3×15 min with wash buffer. For immunological detection of O-GlcNAc, the membrane was incubated in blocking buffer A for 1 hour at RT and, after washing, the membrane was incubated with a secondary goat anti-mouse-IgM-HRP-conjugate (1:2500, Santa Cruz Biotech) for one hour at RT or 4° C. overnight in blocking solution. For detection of β-actin levels, the membrane was incubated with a secondary goat anti-mouse-IgG-HRP conjugate (1:100000, Sigma) for one hour at RT or 4° C. overnight in blocking solution B. Membranes were washed and detection of membrane bound goat anti-mouse-IgG-HRP conjugate was accomplished by chemiluminescent detection using the SuperSignal West Pico Chemiluminescent Detection Kit (Pierce) and film (Kodak Biomax MR).

O-GlcNAcase = target: T1, O-GlcNAcase (Homo sapiens, UniProt O60502); assay: biochemical
T1 sequence (O60502 1-916): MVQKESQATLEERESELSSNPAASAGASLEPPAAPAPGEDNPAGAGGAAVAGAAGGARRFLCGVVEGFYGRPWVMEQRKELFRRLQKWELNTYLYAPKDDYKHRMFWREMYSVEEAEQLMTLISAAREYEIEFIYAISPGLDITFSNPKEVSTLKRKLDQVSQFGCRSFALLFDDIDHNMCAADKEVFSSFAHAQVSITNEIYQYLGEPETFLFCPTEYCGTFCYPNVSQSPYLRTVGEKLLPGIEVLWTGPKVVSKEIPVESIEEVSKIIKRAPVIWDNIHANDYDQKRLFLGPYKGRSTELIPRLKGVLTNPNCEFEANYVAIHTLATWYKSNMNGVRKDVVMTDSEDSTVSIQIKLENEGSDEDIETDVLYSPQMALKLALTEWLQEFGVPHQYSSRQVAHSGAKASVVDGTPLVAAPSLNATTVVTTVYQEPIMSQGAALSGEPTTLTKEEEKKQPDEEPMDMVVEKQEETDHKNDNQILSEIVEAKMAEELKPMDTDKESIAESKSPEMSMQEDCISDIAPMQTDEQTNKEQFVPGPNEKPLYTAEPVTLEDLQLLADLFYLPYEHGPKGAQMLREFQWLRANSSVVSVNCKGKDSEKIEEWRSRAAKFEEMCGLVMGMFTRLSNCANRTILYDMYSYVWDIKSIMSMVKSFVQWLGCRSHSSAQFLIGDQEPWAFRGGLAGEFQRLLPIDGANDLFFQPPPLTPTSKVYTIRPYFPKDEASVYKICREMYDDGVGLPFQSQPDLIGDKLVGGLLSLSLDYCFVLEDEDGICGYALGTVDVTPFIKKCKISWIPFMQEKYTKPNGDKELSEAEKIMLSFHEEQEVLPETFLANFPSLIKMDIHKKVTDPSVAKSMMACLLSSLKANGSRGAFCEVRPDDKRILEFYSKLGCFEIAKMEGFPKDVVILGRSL

[2] = target: human placental β-hexosaminidase; assay: Inhibition of β-hexosaminidase, substrate MU-GlcNAc (5), Dixon plots; conditions: read-out: β-Hexosaminidase KI; Table 2; substrate 5 at 0.64 mM, pH 4.25, Dixon plots

Compound: CCCC1=N[C@@H]2[C@@H](O)[C@H](O)[C@@H](CO)O[C@@H]2S1 [Compound 9c, 1,2-dideoxy-2′-propyl-α-D-glucopyranoso-[2,1-d]-2′-thiazoline]
- cellular levels of O-GlcNAc-modified proteins compared to control ([1]; 40 hours, Western blot): Marked increases; also recorded: increase in cellular levels of O-GlcNAc-modified proteins
- levels of O-GlcNAc-modified proteins after one hour of exposure ([1]; one hour): increases in levels of O-GlcNAc-modified proteins were observed
- levels of O-GlcNAc-modified proteins as a function of time ([1]; over 40 hours): clear time dependent increase
- Ki (O-GlcNAcase): 0.23 µM
- Ki [2]: 340 µM
